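Cultured in 96-well plates, cells were exposed to test compound for 48 hours across five concentrations. Here, GI50 denotes the concentration required for 50% inhibition of growth. Definition used: TGI = concentration required for complete inhibition of growth.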
Experiments:
Experiment in all cases: growth of human tumour cells (NCI), 48 h
[1] = system: SN12C renal
[2] = system: SK-MEL-28 melanoma
[3] = system: SW-620 colon
[4] = system: UACC-62 melanoma
[5] = system: EKVX NSCLC
[6] = system: IGROV1 ovarian
[7] = system: DU-145 prostate
[8] = system: A498 renal
[9] = system: RXF 393 renal
[10] = system: HS 578T breast
[11] = system: CCRF-CEM leukemia
[12] = system: NCI/ADR-RES ovarian
[13] = system: 786-0 renal
[14] = system: HCT-116 colon
[15] = system: SK-MEL-2 melanoma
[16] = system: SF-295 CNS
[17] = system: RPMI-8226 leukemia
[18] = system: COLO 205 colon
[19] = system: BT-549 breast
[20] = system: NCI-H460 lung
[21] = system: HT29 colon
[22] = system: SNB-75 CNS
[23] = system: NCI-H522 lung
[24] = system: HOP-92 NSCLC
[25] = system: SF-539 CNS
[26] = system: U251 CNS
[27] = system: CAKI-1 renal
[28] = system: A549 NSCLC
[29] = system: HCT-15 colon
[30] = system: NCI-H226 lung
[31] = system: K-562 leukemia
[32] = system: HL-60(TB) leukemia
[33] = system: HCC-2998 colon
[34] = system: LOX IMVI melanoma
[35] = system: PC-3 prostate
[36] = system: MDA-MB-468 breast
[37] = system: OVCAR-5 ovarian
[38] = system: MDA-MB-435
[39] = system: ACHN renal
[40] = system: SK-OV-3 ovarian
[41] = system: NCI-H23 lung
[42] = system: M14 melanoma
[43] = system: HOP-62 NSCLC
[44] = system: OVCAR-4 ovarian
[45] = system: KM12 colon
[46] = system: SNB-19 CNS
[47] = system: MOLT-4 leukemia
[48] = system: T-47D breast
[49] = system: SK-MEL-5 melanoma
[50] = system: UACC-257 melanoma
[51] = system: SF-268 CNS
[52] = system: SR leukemia
[53] = system: MCF7 breast
[54] = system: OVCAR-3 ovarian
[55] = system: TK-10 renal
[56] = system: OVCAR-8 ovarian
[57] = system: MDA-MB-231 breast
[58] = system: MALME-3M melanoma
[59] = system: UO-31 renal

`Cc1ccc(NC(=O)N/N=C/c2c[nH]c3ccccc23)c(C)c1` showed a GI50 [1] of 0.419 µM, a TGI [1] of 8.97 µM and a GI50 [2] of 1.45 µM. For the same compound, the TGI [2] was greater than 79.3 µM, the GI50 [3] was 0.203 µM and the TGI [3] was greater than 100 µM. The GI50 [4] was 0.151 µM, the TGI [4] was 5.27 µM and the GI50 [5] was 0.469 µM. It also gave a TGI [5] greater than 100 µM, a GI50 [6] of 0.378 µM and a TGI [6] of 20.1 µM. It also gave a GI50 [7] of 0.432 µM, a TGI [7] of 19.4 µM and a GI50 [8] of 12.7 µM. It also gave a TGI [8] of 38.4 µM, a GI50 [9] of 0.267 µM and a TGI [9] of 6.23 µM. For the same compound, the GI50 [10] was 0.281 µM, the TGI [10] was 23.1 µM and the GI50 [11] was 0.308 µM. The TGI [11] was greater than 40 µM, the GI50 [12] was 0.0689 µM and the TGI [12] was 0.631 µM. For the same compound, the GI50 [13] was 0.481 µM, the TGI [13] was 13.9 µM and the GI50 [14] was 0.245 µM. The TGI [14] was 4.79 µM, the GI50 [15] was 0.258 µM and the TGI [15] was 0.627 µM. The GI50 [16] was 0.239 µM, the TGI [16] was 12 µM and the GI50 [17] was 0.373 µM. For the same compound, the TGI [17] was 25.6 µM, the GI50 [18] was 0.361 µM and the TGI [18] was 1.59 µM. It also gave a GI50 [19] of 0.596 µM, a TGI [19] of 23.9 µM and a GI50 [20] of 0.357 µM. For the same compound, the TGI [20] was 15.7 µM, the GI50 [21] was 0.164 µM and the TGI [21] was 1.04 µM. For the same compound, the GI50 [22] was 0.343 µM, the TGI [22] was 5.6 µM and the GI50 [23] was 0.0379 µM. For the same compound, the TGI [23] was 0.327 µM, the GI50 [24] was 1.6 µM and the TGI [24] was 19 µM. The GI50 [25] was 0.217 µM, the TGI [25] was 0.7 µM and the GI50 [26] was 0.316 µM. The TGI [26] was 12.8 µM, the GI50 [27] was 0.261 µM and the TGI [27] was greater than 44 µM. For the same compound, the GI50 [28] was 0.588 µM, the TGI [28] was 45.9 µM and the GI50 [29] was 0.0785 µM. It also gave a TGI [29] greater than 34.9 µM, a GI50 [30] of 2.5 µM and a TGI [30] greater than 100 µM. The GI50 [31] was 0.0418 µM, the TGI [31] was greater than 100 µM and the GI50 [32] was 0.0997 µM. It also gave a TGI [32] of 2.73 µM, a GI50 [33] of 0.492 µM and a TGI [33] of 4.53 µM. It also gave a GI50 [34] of 0.365 µM, a TGI [34] of 8.33 µM and a GI50 [35] of 0.517 µM. It also gave a TGI [35] greater than 100 µM, a GI50 [36] of 0.178 µM and a TGI [36] of 0.543 µM. It also gave a GI50 [37] of 0.565 µM, a TGI [37] of 15.5 µM and a GI50 [38] of 0.0281 µM. The TGI [38] was 0.11 µM, the GI50 [39] was 0.637 µM and the TGI [39] was greater than 57.6 µM. It also gave a GI50 [40] of 0.391 µM, a TGI [40] of 25.3 µM and a GI50 [41] of 0.418 µM. The TGI [41] was 12.2 µM, the GI50 [42] was 0.175 µM and the TGI [42] was 12.8 µM. The GI50 [43] was 0.343 µM, the TGI [43] was 26.2 µM and the GI50 [44] was 5.49 µM. For the same compound, the TGI [44] was greater than 100 µM, the GI50 [45] was 0.205 µM and the TGI [45] was 10.1 µM. The GI50 [46] was 0.554 µM, the TGI [46] was 27.2 µM and the GI50 [47] was 0.269 µM. The TGI [47] was greater than 32.8 µM, the GI50 [48] was 0.363 µM and the TGI [48] was 78 µM. The GI50 [49] was 0.226 µM, the TGI [49] was 8.13 µM and the GI50 [50] was 0.573 µM. For the same compound, the TGI [50] was 47.5 µM, the GI50 [51] was 0.828 µM and the TGI [51] was 23.4 µM. It also gave a GI50 [52] of 0.0336 µM, a TGI [52] greater than 21.9 µM and a GI50 [53] of 0.235 µM. For the same compound, the TGI [53] was 27.9 µM, the GI50 [54] was 0.138 µM and the TGI [54] was 1.8 µM. It also gave a GI50 [55] of 2.59 µM, a TGI [55] of 39.6 µM and a GI50 [56] of 0.378 µM. It also gave a TGI [56] of 3.11 µM, a GI50 [57] of 0.495 µM and a TGI [57] of 5.41 µM. For the same compound, the GI50 [58] was 0.241 µM, the TGI [58] was 19.1 µM and the GI50 [59] was 0.458 µM. It also gave a TGI [59] greater than 67 µM.
`Cc1ccccc1[C@H]1C(C(=O)c2ccc(Cl)cc2)C2(N[C@@H]1c1ccccc1)C(=O)Nc1ccc(Br)cc12` (some centres undefined) was tested, and the GI50 [1] was 4.8 µM, the TGI [1] was 9.56 µM and the GI50 [2] was 5.78 µM. It also gave a TGI [2] of 10.7 µM, a GI50 [3] of 5.9 µM and a TGI [3] of 11.7 µM. The GI50 [4] was 4.69 µM, the TGI [4] was 9.48 µM and the GI50 [5] was 4.33 µM. For the same compound, the TGI [5] was 9.25 µM, the GI50 [6] was 4.85 µM and the TGI [6] was 10.4 µM. For the same compound, the GI50 [7] was 5.46 µM, the TGI [7] was 10.6 µM and the GI50 [8] was 6.11 µM. The TGI [8] was 11.7 µM, the GI50 [9] was 3.67 µM and the TGI [9] was 8.34 µM. It also gave a GI50 [10] of 5.62 µM, a TGI [10] of 18.5 µM and a GI50 [11] of 7.4 µM. For the same compound, the TGI [11] was 22.4 µM, the GI50 [12] was 5.54 µM and the TGI [12] was 12.1 µM. It also gave a GI50 [13] of 5.9 µM, a TGI [13] of 10.9 µM and a GI50 [14] of 5.26 µM. The TGI [14] was 10.2 µM, the GI50 [15] was 5.32 µM and the TGI [15] was 10.7 µM. The GI50 [16] was 4.77 µM, the TGI [16] was 9.52 µM and the GI50 [17] was 7.29 µM. The TGI [17] was 23.4 µM, the GI50 [18] was 5.7 µM and the TGI [18] was 11.1 µM. It also gave a GI50 [19] of 5.56 µM, a TGI [19] of 10.6 µM and a GI50 [20] of 6.07 µM. It also gave a TGI [20] of 12.7 µM, a GI50 [21] of 5.52 µM and a TGI [21] of 13.2 µM. For the same compound, the GI50 [22] was 2.7 µM, the TGI [22] was 9.33 µM and the GI50 [23] was 5.86 µM. The TGI [23] was 11.5 µM, the GI50 [24] was 2.99 µM and the TGI [24] was 7.93 µM. It also gave a GI50 [25] of 5.99 µM, a TGI [25] of 11.2 µM and a GI50 [26] of 5.6 µM. For the same compound, the TGI [26] was 12.1 µM, the GI50 [27] was 4.11 µM and the TGI [27] was 8.63 µM. It also gave a GI50 [28] of 5.44 µM, a TGI [28] of 11.8 µM and a GI50 [29] of 5.39 µM. For the same compound, the TGI [29] was 10.7 µM, the GI50 [30] was 5.39 µM and the TGI [30] was 10.6 µM. It also gave a GI50 [31] of 8.79 µM, a TGI [31] of 36.5 µM and a GI50 [32] of 9.02 µM. For the same compound, the TGI [32] was 28.7 µM, the GI50 [33] was 5.87 µM and the TGI [33] was 10.9 µM. The GI50 [34] was 5.22 µM, the TGI [34] was 9.99 µM and the GI50 [35] was 4.09 µM. It also gave a TGI [35] of 9.8 µM, a GI50 [36] of 5.24 µM and a TGI [36] of 10.1 µM. For the same compound, the GI50 [37] was 4.89 µM, the TGI [37] was 9.61 µM and the GI50 [38] was 5.61 µM. The TGI [38] was 10.6 µM, the GI50 [39] was 5.76 µM and the TGI [39] was 10.7 µM. For the same compound, the GI50 [40] was 6.75 µM, the TGI [40] was 15.9 µM and the GI50 [41] was 5.39 µM. The TGI [41] was 10.9 µM, the GI50 [42] was 5.9 µM and the TGI [42] was 11.1 µM. For the same compound, the GI50 [43] was 5.91 µM, the TGI [43] was 11.6 µM and the GI50 [44] was 4.72 µM. For the same compound, the TGI [44] was 10.5 µM, the GI50 [45] was 5.63 µM and the TGI [45] was 11.6 µM. For the same compound, the GI50 [46] was 6.08 µM, the TGI [46] was 12.1 µM and the GI50 [47] was 6.48 µM. It also gave a TGI [47] of 23.3 µM, a GI50 [48] of 4.09 µM and a TGI [48] of 9.42 µM. The GI50 [49] was 5.83 µM, the TGI [49] was 10.8 µM and the GI50 [50] was 5.77 µM. It also gave a TGI [50] of 11.5 µM, a GI50 [51] of 4.74 µM and a TGI [51] of 10.2 µM. The GI50 [53] was 4.33 µM, the TGI [53] was 10.2 µM and the GI50 [54] was 3.77 µM. For the same compound, the TGI [54] was 8.32 µM, the GI50 [55] was 5.54 µM and the TGI [55] was 10.9 µM. For the same compound, the GI50 [56] was 6.35 µM, the TGI [56] was 15 µM and the GI50 [57] was 5.34 µM. It also gave a TGI [57] of 10.2 µM, a GI50 [58] of 5.35 µM and a TGI [58] of 10.3 µM. The GI50 [59] was 4.41 µM and the TGI [59] was 8.94 µM.

Source: PubChem BioAssay (NCI)
